One assay deals with T1, recombinant human CK2 (Homo sapiens, UniProt P68400).
T1 construct: purchased Upstate
Put plainly: CK2 assay (cell-free, 33P-ATP filter plate). The class given is biochemical. The note with it: Table 5. The gist of the method:
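Recombinant human CK2 (25 ng) with RRRDDDSDDD peptide in MOPS pH 7.2 buffer; started with ATP/MgCl2 plus [γ-33P]ATP (75 micromolar ATP in stock solution) for 10 minutes at 30 degrees C. Acid-quenched, captured on phosphocellulose filters, and incorporated radioactivity counted by scintillation.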

For another assay, the target named is recombinant PIM-1 (Homo sapiens, UniProt P11309). The experiment in a line: PIM-1 assay (33P-ATP filter plate). It counts as biochemical. The note with it: Table 5; read-out: PIM1: IC50. The gist of the method:
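Recombinant PIM-1 (1 ng) with 100 uM KKRNRTLTK, 15 uM ATP plus [γ-33P]ATP, 10 mM Mg acetate in MOPS pH 7.0, 4% DMSO. Reaction 40 min at 23° C, quenched with phosphoric acid; labeled peptide captured on phosphocellulose filter and counted by scintillation.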

The target in a further assay is recombinant human PIM2 (Homo sapiens, UniProt Q9P1W9). The experiment in a line: PIM-2 assay (33P-ATP filter plate). The class given is biochemical. The settings on record: Table 5. Here is the method:
PIM-2 Assay Method: Test compounds dissolved and diluted in DMSO (2 μl) were added to a reaction mixture comprising 10 μl of 5× Reaction Buffer (40 mM MOPS pH 7.0, 5 mM EDTA), 10 μl of recombinant human PIM2 solution (4 ng PIM-2 dissolved in dilution buffer (20 mM MOPS pH 7.0; EDTA 1 mM; 5% Glycerol; 0.01% Brij 35; […]; […] 2-mercaptoethanol; 1 mg/ml BSA)) and 8 ul of water. Reactions were initiated by the addition of 10 ul of ATP Solution (49% (15 mM MgCl2; 75 uM ATP) 1% ([γ-^33P]ATP: Stock 1 mCi/1000; 3000Ci/mmol (Perkin Elmer)) and 10 ul of substrate peptide solution (RSRSSYPAGT, dissolved in water at a concentration of 1 mM), Reactions were maintained for 10 min at 30° C. The reactions were quenched with 100 ul of 0.75% Phosphoric acid, then transferred to and filtered through a Phosphocellulose filter plate (Millipore, MSPH-N6B-50). After washing each well 4 times with 0.75% Phosphoric acid, scintillation fluid (20 uL) was added to each well and the residual radioactivity was measured using a Wallac luminescence counter.

The subject of another assay is K-562. Put plainly: Alamar Blue cell proliferation assay, K-562. It counts as cell-based. The settings on record: Homo sapiens, K562, K-562, Table 5, read-out: AB: K-562 IC50. The gist of the method:
(§1)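 Trypsinized, counted cells are plated at 4,000-5,000 per well, then test compound is added and the plates are incubated for four days at 37° C in 5% CO2. Next, Alamar Blue is added for four hours, after which dye fluorescence is recorded at 544/590 nm.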
A general note: Alamar Blue is a resazurin reagent that responds to reducing activity.

The subject of the next assay is MV-4-11. Put plainly: Alamar Blue cell proliferation assay, MV-4-11. It counts as cell-based. The note with it: Homo sapiens, MV4-11, MV-4-11, Table 5, read-out: AB: MV-4-11 IC50. The gist of the method:
as §1

Another assay concerns BxPC3. Put plainly: Alamar Blue cell proliferation assay, BxPC3. It counts as cell-based. The settings on record: Homo sapiens, BXPC-3, BxPC3, Table 5, read-out: AB: BxPC3 IC50. As to the method: (§2) A representative cell-proliferation assay protocol using Alamar Blue dye (stored at 4° C., use 20 ul per well) is described hereafter.
(§3) a. Split and trypsinize cells.
(§4) b. Count cells using hemocytometer.
(§5) c. Plate 4,000-5,000 cells per well in 100 μl of medium and seed into a 96-well plate according to the following plate layout. Add cell culture medium only to wells B10 to B12. Wells B1 to B9 have cells but no compound added.
(§6) d. Add 100 μl of 2× drug dilution to each well in a concentration shown in the plate layout above. At the same time, add 100 μl of media into the control wells (wells B10 to B12). Total volume is 200 μl/well.
(§7) e. Incubate four (4) days at 37° C., 5% CO2 in a humidified incubator.
(§8) f. Add 20 μl Alamar Blue reagent to each well.
(§9) g. Incubate for four (4) hours at 37° C., 5% CO2 in a humidified incubator.
(§10) h. Record fluorescence at an excitation wavelength of 544 nm and emission wavelength of 590 nm using a microplate reader.
(§11) In the assays, cells are cultured with a test compound for approximately four days, the dye is then added to the cells and fluorescence of […] dye is detected after approximately four hours. Different types of cells can be utilized in the assays (e.g., HCT-116 human colorectal carcinoma cells, PC-3 human prostatic cancer cells and MiaPaca human pancreatic carcinoma cells).

A further assay has as its system MDAMB453. The experiment in a line: Alamar Blue cell proliferation assay, MDAMB453. The class given is cell-based. The note with it: Homo sapiens, MDA-MB-453, MDAMB453, Table 5, read-out: AB: MDAMB453 IC50. Here is the method: as §2, §3, §4, §5, §6, §7, §8, §9, §10, §11
In another assay the test system is SUM-149PT. Put plainly: Alamar Blue cell proliferation assay, SUM-149PT. It counts as cell-based. The settings on record: Homo sapiens, SUM149PT, Table 5, read-out: AB: SUM-149PT IC50. Here is the method:
as §2, §3, §4, §5, §6, §7, §8, §9, §10, §11

Molecules are shown by their SMILES. Some results are limits rather than exact numbers.

This passage reports IC50 results from patent publication US20100331315A1, “RHODANINES AND RELATED HETEROCYCLES AS KINASE INHIBITORS” (priority 2009, published 2010).

Usually IC50 stands for the concentration that inhibits the measured activity by half.

T1 sequence (P68400 whole entry): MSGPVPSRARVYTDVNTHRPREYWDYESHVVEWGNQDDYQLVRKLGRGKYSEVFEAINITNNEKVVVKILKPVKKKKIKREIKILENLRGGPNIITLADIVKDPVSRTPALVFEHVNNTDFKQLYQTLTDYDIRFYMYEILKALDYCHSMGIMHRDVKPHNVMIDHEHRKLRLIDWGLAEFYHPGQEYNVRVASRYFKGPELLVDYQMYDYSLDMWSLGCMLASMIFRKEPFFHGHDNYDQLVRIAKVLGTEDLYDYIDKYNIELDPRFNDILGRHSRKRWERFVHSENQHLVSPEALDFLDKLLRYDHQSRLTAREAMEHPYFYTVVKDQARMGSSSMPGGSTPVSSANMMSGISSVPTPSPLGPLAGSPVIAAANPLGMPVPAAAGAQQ
T1 sequence (P67870 whole entry partner): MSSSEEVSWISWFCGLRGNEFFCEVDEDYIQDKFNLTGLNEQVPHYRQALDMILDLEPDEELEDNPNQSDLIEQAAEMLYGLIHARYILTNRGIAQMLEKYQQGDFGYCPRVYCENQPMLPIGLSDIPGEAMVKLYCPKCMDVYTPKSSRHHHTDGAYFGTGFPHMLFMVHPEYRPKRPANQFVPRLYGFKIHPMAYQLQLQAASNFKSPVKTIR
Chain of recombinant human PIM2 (Q9P1W9 whole entry): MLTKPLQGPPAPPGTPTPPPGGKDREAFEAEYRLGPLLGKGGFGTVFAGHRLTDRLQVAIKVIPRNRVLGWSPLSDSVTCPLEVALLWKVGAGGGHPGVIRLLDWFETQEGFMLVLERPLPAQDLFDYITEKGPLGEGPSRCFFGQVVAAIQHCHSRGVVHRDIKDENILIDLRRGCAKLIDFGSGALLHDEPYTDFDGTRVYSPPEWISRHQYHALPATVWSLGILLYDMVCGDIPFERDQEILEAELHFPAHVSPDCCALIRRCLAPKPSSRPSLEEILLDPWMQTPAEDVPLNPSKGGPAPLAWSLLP
Chain of recombinant PIM-1 (P11309 whole entry): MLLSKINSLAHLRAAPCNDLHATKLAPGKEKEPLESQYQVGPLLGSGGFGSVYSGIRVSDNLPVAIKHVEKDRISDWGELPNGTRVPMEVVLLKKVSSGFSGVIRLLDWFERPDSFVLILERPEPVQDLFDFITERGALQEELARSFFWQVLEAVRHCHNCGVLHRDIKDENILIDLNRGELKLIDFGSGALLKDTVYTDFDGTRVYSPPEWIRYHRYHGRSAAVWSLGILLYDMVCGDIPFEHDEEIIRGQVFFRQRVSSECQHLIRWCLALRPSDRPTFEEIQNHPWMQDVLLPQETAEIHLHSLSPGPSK

`CN1CCCN(c2cncc(-c3cc(/C=C4\SC(=O)NC4=O)ccc3F)n2)CC1`: the IC50 is < 50 nM at recombinant human CK2; < 50 nM on recombinant PIM-1; < 50 nM on recombinant human PIM2; 267 nM with K-562; 197 nM in the assay on MV-4-11; 6710 nM with BxPC3. Further, the IC50 was determined as 1180 nM in the assay on MDAMB453 and 1550 nM with SUM-149PT.
On to `O=C1NC(=O)/C(=C\c2ccc(F)c(-c3cncc(N4CCCNCC4)n3)c2)S1`, for which the IC50 at recombinant human CK2 is < 50 nM; at recombinant PIM-1, < 50 nM; on recombinant human PIM2, < 50 nM; in the assay with K-562, 2910 nM; with MV-4-11, 1020 nM; in the assay with BxPC3, 4360 nM. Besides, the IC50 in the assay with MDAMB453 came out at 1240 nM; with SUM-149PT, 2350 nM.
Take `CN1CCCN(c2cncc(-c3cc(/C=C4\SC(=S)NC4=O)ccc3F)n2)CC1`: the IC50 was < 50 nM at recombinant human CK2; < 50 nM at recombinant PIM-1; 50 nM on recombinant human PIM2; 186 nM in the assay with K-562; 163 nM with MV-4-11; 2380 nM in the assay with BxPC3. The values for the IC50 in the assay on MDAMB453 and in the assay on SUM-149PT were 521 nM and 315 nM, respectively.
Take `O=C1NC(=O)/C(=C\c2ccc(F)c(-c3cncc(N4CCCN(C(=O)c5ccccc5F)CC4)n3)c2)S1`: the IC50 on recombinant human CK2 is < 50 nM; at recombinant human PIM2, < 50 nM; in the assay on K-562, 1600 nM; in the assay with MV-4-11, 3110 nM; with BxPC3, 20000 nM; with MDAMB453, 2690 nM. Besides, the 50% inhibitory concentration (IC50) in the assay with SUM-149PT is 2610 nM.
For `CN1CCCN(c2cncc(-c3cncc(/C=C4\SC(=O)NC4=O)c3)n2)CC1`, the IC50 on recombinant human CK2 was 10.6 nM; on recombinant PIM-1, < 50 nM; on recombinant human PIM2 it was < 50 nM; in the assay on K-562, > 10000 nM; in the assay with MV-4-11, 9350 nM; in the assay with BxPC3 it was > 30000 nM. The half-maximal inhibitory concentration (IC50) is 28300 nM in the assay on MDAMB453 and > 30000 nM in the assay on SUM-149PT.
On to `O=C1NC(=O)/C(=C\c2ccc(F)c(-c3cncc(N4CCCN(C(=O)Nc5ccccc5)CC4)n3)c2)S1`, for which the IC50 at recombinant human CK2 is < 50 nM; at recombinant human PIM2, < 50 nM; in the assay with K-562, 4300 nM; with MV-4-11 it was > 10000 nM; in the assay on BxPC3, 18800 nM; with MDAMB453, 10000 nM. In the assay with SUM-149PT, the IC50 worked out at 6150 nM.
For the compound `O=C1NC(=O)/C(=C\c2ccc(F)c(-c3cncc(N4CCCN(C(=O)OCc5ccccc5)CC4)n3)c2)S1`, the IC50 is < 50 nM on recombinant human CK2; < 50 nM on recombinant human PIM2; 2570 nM in the assay on K-562; 3490 nM in the assay on MV-4-11; 24900 nM in the assay with BxPC3; 3980 nM in the assay on MDAMB453. Moreover, in the assay with SUM-149PT, the IC50 came out at 8280 nM.
As to `CN1CCCN(c2cncc(-c3cc(/C=C4\SC(=O)NC4=O)ccc3Cl)n2)CC1`, the concentration for half-maximal inhibition (IC50) was 92.1 nM at recombinant human CK2; < 50 nM on recombinant PIM-1; < 50 nM on recombinant human PIM2; > 30000 nM in the assay on K-562; 3010 nM in the assay on MV-4-11; > 30000 nM with BxPC3. Moreover, the concentration for half-maximal inhibition (IC50) in the assay on MDAMB453 was 18400 nM; with SUM-149PT, > 30000 nM.
As for `CCOC(=O)N1CCCN(c2cncc(-c3cc(/C=C4/SC(=O)NC4=O)ccc3F)n2)CC1`, the IC50 on recombinant human CK2 is < 50 nM; at recombinant human PIM2 it was < 50 nM; in the assay on K-562, 3580 nM; in the assay with MV-4-11, 3880 nM; in the assay with BxPC3, 22700 nM; in the assay on MDAMB453, 10900 nM. The IC50 in the assay with SUM-149PT is 4180 nM.
Take `CC(C)(C)C(=O)N1CCCN(c2cncc(-c3cc(/C=C4/SC(=O)NC4=O)ccc3F)n2)CC1`: the IC50 was < 50 nM on recombinant human CK2; < 50 nM on recombinant human PIM2; 316 nM with K-562; 374 nM with MV-4-11; 12700 nM in the assay on BxPC3; 318 nM with MDAMB453. Also, the IC50 with SUM-149PT amounted to 1020 nM.
Consider `O=C1NC(=O)/C(=C\c2ccc(F)c(-c3cncc(N4CCCN(C(=O)Oc5ccccc5)CC4)n3)c2)S1`, for which the IC50 at recombinant human CK2 is < 50 nM; on recombinant human PIM2, < 50 nM; in the assay with K-562 it was 9370 nM; in the assay with MV-4-11, 6300 nM; in the assay on BxPC3 it was 24000 nM; in the assay with MDAMB453 it was 3810 nM. The IC50 in the assay with SUM-149PT turned out to be 6690 nM.
